Laboratory results from ChEMBL document CHEMBL4616595, “Targeted suppression of metastasis regulatory transcription factor SOX2 in various cancer cell lines using a sequence-specific designer pyrrole-imidazole polyamide” (Bioorg Med Chem, 2020).
Active and inactive are the calls of the source. No cut-off for these calls is given here.

Experiments:
SOX2 promoter DNA [1] = assay: Binding affinity to SOX2 promoter 5'-CTTTGTT-3' DNA in human SW620 cells assessed as down regulation of VIM gene expression at 2 uM incubated for 48 hrs by Cy3-labelled cRNA-based microarray analysis; assay type: cell-based; settings: SW-620
U2OS = assay: Antiproliferative activity against human U2OS cells assessed as inhibition of cell proliferation incubated for 48 hrs by [3H]thymidine incorporation based scintillation counting method; assay type: functional
SOX2 promoter DNA [2] = assay: Binding affinity to SOX2 promoter 5'-CTTTGTT-3' DNA in human SW620 cells assessed as down regulation of CDC42 mRNA expression incubated for 48 hrs by qRT-PCR analysis; assay type: cell-based; settings: SW-620
SOX2 promoter DNA [3] = assay: Binding affinity to SOX2 promoter 5'-CTTTGTT-3' DNA in mouse EG7 cells assessed as reduction in SOX2 mRNA expression incubated for 48 hrs by qRT-PCR analysis; assay type: cell-based
SOX2 promoter DNA [4] = assay: Binding affinity to SOX2 promoter 5'-CTTTGTT-3' DNA in human MKN45 cells assessed as reduction in SOX2 mRNA expression incubated for 48 hrs by qRT-PCR analysis; assay type: cell-based; settings: MKN-45
MCF7 = assay: Cell cycle arrest in human MCF7 cells assessed as increase in accumulation at sub-G1/G1 phase at 2 uM to 5 uM after 48 hrs by propidium iodide staining based flow cytometry analysis; assay type: functional
B16-F10 = assay: Anti-metastasis activity in mouse B16/F10 cells implanted in C57BL/6N mouse assessed as reduction in lung metastatic nodules at 1 mg/kg ip dosed every third day and measured on day 21 relative to untreated control; assay type: functional
SOX2 promoter DNA [5] = assay: Binding affinity to SOX2 promoter 5'-CTTTGTT-3' DNA in human DU145 cells assessed as reduction in SOX2 mRNA expression incubated for 48 hrs by qRT-PCR analysis; assay type: cell-based; settings: DU-145
SOX2 promoter DNA [6] = assay: Binding affinity to SOX2 promoter 5'-CTTTGTT-3' DNA in human MCF7 cells assessed as reduction in SOX2 protein level incubated for 48 hrs by immunostaining based FACS analysis; assay type: cell-based
SOX2 promoter DNA [7] = assay: Binding affinity to SOX2 promoter 5'-CTTTGTT-3' DNA in human SW620 cells assessed as downregulation beta-catenin mRNA expression incubated for 48 hrs by qRT-PCR analysis; assay type: cell-based; settings: SW-620
SOX2 promoter DNA [8] = assay: Binding affinity to SOX2 promoter 5'-CTTTGTT-3' DNA in human SW620 cells assessed as downregulation S100A4 mRNA expression incubated for 48 hrs by qRT-PCR analysis; assay type: cell-based; settings: SW-620
SOX2 promoter DNA [9] = assay: Binding affinity to SOX2 promoter 5'-CTTTGTT-3' DNA in human PC3 cells assessed as reduction in SOX2 mRNA expression incubated for 48 hrs by qRT-PCR analysis; assay type: cell-based; settings: PC-3
NHDF = assay: Cytotoxicity against HDF cells assessed as effect on cell viability measured after 48 hrs by MTT assay; assay type: cell-based; settings: human
SOX2 promoter DNA [10] = assay: Binding affinity to SOX2 promoter 5'-CTTTGTT-3' DNA in human SW620 cells assessed as downregulation of SNAIL2 mRNA expression at 2 uM incubated for 48 hrs by qRT-PCR analysis; assay type: cell-based; settings: SW-620
SOX2 promoter DNA [11] = assay: Binding affinity to SOX2 promoter 5'-CTTTGTT-3' DNA in mouse GL261 cells assessed as reduction in SOX2 mRNA expression incubated for 48 hrs by qRT-PCR analysis; assay type: cell-based
SOX2 promoter DNA [12] = assay: Binding affinity to SOX2 promoter 5'-CTTTGTT-3' DNA in human SW620 cells assessed as downregulation DVL3 mRNA expression incubated for 48 hrs by qRT-PCR analysis; assay type: cell-based; settings: SW-620

In the case of `CC(=O)Nc1cc(C(=O)Nc2cc(C(=O)Nc3cc(C(=O)NCCC(=O)Nc4cn(C)c(C(=O)Nc5cc(C(=O)NCCCC(=O)Nc6cc(C(=O)Nc7cc(C(=O)NCCC(=O)Nc8cc(C(=O)Nc9cc(C(=O)Nc%10cn(C)c(C(=O)NCCCN(C)C)n%10)n(C)c9)n(C)c8)n(C)c7)n(C)c6)n(C)c5)n4)n(C)c3)n(C)c2)n(C)c1`, the Activity (SOX2 promoter DNA [1]) was “Active”, the inhibition (U2OS) was “Dose-dependent effect” and the Activity (SOX2 promoter DNA [2]) was “Active”. The Activity (SOX2 promoter DNA [3]) was “Active”, the Activity (SOX2 promoter DNA [4]) was “Active” and the Activity (MCF7) was “Active”. The “fold change (FC)” value (B16-F10) was 4, the Activity (SOX2 promoter DNA [5]) was “Active” and the Activity (SOX2 promoter DNA [6]) was “Dose-dependent effect”. The Activity (SOX2 promoter DNA [7]) was “Active”, the Activity (SOX2 promoter DNA [8]) was “Active” and the Activity (SOX2 promoter DNA [9]) was “Active”. The Activity (NHDF) was “Non-Toxic”, the Activity (SOX2 promoter DNA [10]) was “Active” and the Activity (SOX2 promoter DNA [11]) was “Active”. For the same compound, the Activity (SOX2 promoter DNA [12]) was “Active”.
